Literature values, collected in patent publication US7166295B1, “Methods of treatment and diagnostic visualization, particularly in cancer” (priority 1995, dated 2007).

Settings: incorporated in liposomes, injected intraperitoneally into mice; compared with injection of the respective free drug

| Structure (SMILES) | concentration of drug in the plasma, spleen and lymphoid tissue relative to the free drug |
| --- | --- |
| CCCCCCCC/C=C\CCCCCCCC(=O)OCC(COP(=O)(O)OC[C@@H]1CCC(n2ccc(N)nc2=O)O1)OC(=O)CCCCCCC/C=C\CCCCCCCC (some centres unmarked) [DOP-ddc, Dioleoyl-phospathidyl-ddc] | increased concentration of drug in the plasma, spleen and lymphoid tissue |
| CCCCCCCCCCCCCCCC(=O)OCC(COP(=O)(O)OCC1OC(n2cc(C)c(=O)[nH]c2=O)CC1N=[N+]=[N-])OC(=O)CCCCCCCCCCCCCCC (centres unmarked) [DPP-AZT, Dipalmitoyl-phosphatidyl-3′-Azido-3′-deoxythymidine] | increased concentration of drug in the plasma, spleen and lymphoid tissue |
